The values that follow come from patent publication US11072632B2, “Inhibitors of 17β-HSD1, 17β-HSD3 and 17β-HSD10” (UNIVERSITÉ LAVAL, priority 2011, dated 2021).

In assay [1] the target is T1, 17β-HSD3 (Homo sapiens, UniProt P37058).
T1 construct: expressed in transfected cells; host or cells: HEK-293 (homogenate)
T1 sequence (P37058 1-310): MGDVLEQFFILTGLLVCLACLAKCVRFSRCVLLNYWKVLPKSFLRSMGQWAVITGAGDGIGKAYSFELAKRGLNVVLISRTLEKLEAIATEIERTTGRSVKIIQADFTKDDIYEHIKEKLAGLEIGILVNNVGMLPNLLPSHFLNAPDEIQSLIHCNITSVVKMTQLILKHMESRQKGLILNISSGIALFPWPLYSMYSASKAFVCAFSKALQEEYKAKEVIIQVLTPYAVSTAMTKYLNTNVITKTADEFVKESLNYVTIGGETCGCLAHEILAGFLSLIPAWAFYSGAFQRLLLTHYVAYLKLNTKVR
The experiment in a line: Inhibition of 17β-HSD3 in homogenated HEK-293 cells. The assay is classed as biochemical. Conditions: for inhibition at 0.01 µM: read-out: Homo (%) (0.01 μM), Table 4; for inhibition at 0.1 µM: read-out: Homo (%) (0.1 μM), Table 4; for inhibition at 1 µM: read-out: Homo (%) (1.0 μM), Table 4.

The target in assay [2] is T1, 17β-HSD3. The experiment in a line: Inhibition of 17β-HSD3 in intact HEK-293 cells. The assay is classed as cell-based. Conditions: HEK293, 1 h, read-out: Intact cells (%) (0.1 μM), Table 4; 0.1 μM.

`C[C@]12CC[C@@]3(C[C@@H]1CC[C@@H]1[C@@H]2CC[C@]2(C)C(=O)CC[C@@H]12)CN(Cc1cccc(C(F)(F)F)c1)C(=O)O3` [Compound 17g, (3R,5S,8R,9S,10S,13S,14S)-10,13-dimethyl-3′-[3-(trifluoromethyl)benzyl]tetradecahydro-2′H-spiro[cyclopenta[α]phenanthrene-3,5′-[1,3]oxazolidine]-2′,17(2H)-dione]: in assay [1], the inhibition at 0.01 µM was 16% and the inhibition at 0.1 µM was found to be 80%. In assay [2], the inhibition at 0.1 µM amounted to 36%.
As for `C[C@]12CC[C@@]3(C[C@@H]1CC[C@@H]1[C@@H]2CC[C@]2(C)C(=O)CC[C@@H]12)CN(Cc1cc(C(F)(F)F)cc(C(F)(F)F)c1)C(=O)O3` [Compound 17h, (3R,5S,8R,9S,10S,13S,14)-3′-[3,5-bis(trifluoromethyl)benzyl]-10,13-dimethyletradecahydro-2′H-spiro[cyclopenta[α]phenanthrene-3,5′-[1,3]oxazolidine]-2′,17(2H)-dione], in assay [1], the inhibition at 0.01 µM is 12% and the inhibition at 0.1 µM came out at 66%. In addition, the inhibition at 0.1 µM in assay [2] is 35%.
As to `C[C@]12CC[C@@]3(C[C@@H]1CC[C@@H]1[C@@H]2CC[C@]2(C)C(=O)CC[C@@H]12)CN(C1CCCCC1)C(=O)O3` [Compound 17i, (3R,5S,8R,9S,10S,13S,14S)-3′-cyclohexyl-10,13-dimethyltetradecahydro-2′H-spiro[cyclopenta[α]phenanthrene-3,5′-[1,3]oxazolidine]-2′,17(2H)-dione], in assay [1], the inhibition at 0.01 µM is 13%, the inhibition at 0.1 µM came to 75% and the inhibition at 1 µM is 78%. In addition, the inhibition at 0.1 µM in assay [2] was 29%.
Take `Cc1ccc(CN2C[C@]3(CC[C@@]4(C)[C@@H](CC[C@@H]5[C@@H]4CC[C@]4(C)C(=O)C(C)(C)C[C@@H]54)C3)OC2=O)cc1` [Compound 18, (3R,5S,8R,9S,10S,13S,14S)-10,13,16,16-tetramethyl-3′-(4-methylbenzyl)tetrahydrodecahydro-2′H-spiro[cyclopenta[α]phenanthrene-3,5′-[1,3]oxazolidine]-2′,17(2H)-dione]: in assay [1], the inhibition at 0.01 µM was 2%, the inhibition at 0.1 µM was 22% and the inhibition at 1 µM worked out at 74%. Further, the inhibition at 0.1 µM in assay [2] was 18%.
Consider `C[C@]12CC[C@@]3(C[C@@H]1CC[C@@H]1[C@@H]2CC[C@]2(C)C(=O)CC[C@@H]12)CN(CCBr)C(=O)O3` [Compound 22, (3R,5S,8R,9S,10S,13S,14S)-3′-(2-bromoethyl)-10,13-dimethyltetrahydrodecahydro-2′H-spiro[cyclopenta[α]phenanthrene-3,5′-[1,3]oxazolidine]-2′,17(2H)-dione], for which, in assay [1], the inhibition at 0.01 µM came out at 17% and the inhibition at 1 µM turned out to be 93%. The inhibition at 0.1 µM in assay [2] was determined as 31%.
For `Cc1cccc(OCCN2C[C@]3(CC[C@@]4(C)[C@@H](CC[C@@H]5[C@@H]4CC[C@]4(C)C(=O)CC[C@@H]54)C3)OC2=O)c1` [Compound 23a, (3R,5S,8R,9S,10S,13S,14S)-10,13-dimethyl-3′-[2-(3-methylphenoxy)ethyl]tetrahydrodecahydro-2′H-spiro[cyclopenta[α]phenanthrene-3,5′-[1,3]oxazolidine]-2′,17(2H)-dione] the same measures were 13%, 95% and 40%.
Regarding `Cc1cccc(S(=O)(=O)CCN2C[C@]3(CC[C@@]4(C)[C@@H](CC[C@@H]5[C@@H]4CC[C@]4(C)C(=O)CC[C@@H]54)C3)OC2=O)c1` [Compound 23b], in assay [1], the inhibition at 0.01 µM came out at 0%, the inhibition at 0.1 µM is 52% and the inhibition at 1 µM came out at 93%. For the same molecule, the inhibition at 0.1 µM in assay [2] stood at 5%.
